Experimental data reported in patent US4438142A, “Pharmaceutical combination” (Burroughs Wellcome Co., priority 1982, dated 1984).

System: rat
Assay: Analgesic Activity: Rat Hot Plate Assay
Format: in vivo
Conditions: for ED50: po, 1 h, p.o. in rat, single substance, 60 min prior to testing, plate 45±1.0° C., ± standard error
From the text: The rat hot plate assay incorporated two modifications of the mouse hot plate assay originally described by Eddy et al., J. Pharmacol. Exp. Ther. 98, 121-137 (1950). The first modification was enlargement of the diameter of the cylindrical (water filled) copper plate to 25.0 cm to accommodate rats instead of mice. The second modification was the use of a temperature controller to regulate a 250 watt infrared heat lamp which was activated via a thermistor probe attached to the under surface of the copper plate, the temperature of which was thus maintained at 45±1.0° C. (N=28 measurements of the plate temperature under experimental conditions). The time required for a rat placed on the hot plate to respond by lifting, shaking or licking either of its hind or forelimbs was recorded in tenths of a second. Only animals responding in pretest within 6-13 seconds were used in the studies. The combination, comprising an intimate mixture of codeine phosphate with compound I, was suspended in 0.5% sodium carboxymethylcellulose and administered orally, by gavage, in a volume of 1.00 ml/100 g.b. wt. 60 min prior to testing. […] The reaction time of 18.3 seconds represented the sum of the mean pretest times of 40 untreated rats plus the time of 3 standard deviations of the mean. ED50 's and their standard errors were estimated from a graph of the dose-response curves using the method of Miller and Tainter (Proc. Soc. Exp. Biol. Med. 57, 261-262 (1944). Following this procedure the analgesic activities of codeine, compound I and the combination (codeine+compound I) were compared (Table I).

| SMILES | ED50 [mg/kg] | potentiation of the analgesic activity of codeine (upon oral administration, compound I with codeine, species not stated) |
| --- | --- | --- |
| COc1ccc2c3c1O[C@H]1[C@@H](O)C=C[C@H]4[C@@H](C2)N(C)CC[C@@]341 [Codeine Phosphate, reference compound] | 57 ± 35.3 |  |
| O=C1CCCN1c1ccc2c(c1)OCO2 [Compound I, 1-(1,3-benzodioxol)-5-yl-2-pyrrolidinone] | 86 ± 16.5 | four to seven |
